Test results from patent publication US20120202856A1, “SUBSTITUTED BENZIMDAZOLE DERIVATIVES USEFUL AS TRPM8 RECEPTOR MODULATORS” (priority 2011, published 2012).
Several values for one entry are separate records, joined by “and”; a condition that tells them apart may be missing. Equal values may be shown once.

How the values were obtained:
canine TRPM8 = target: T1, canine TRPM8 (Canis lupus familiaris, UniProt Q1A7N1); assay: In Vitro Canine TRPM8 Functional Assay (intracellular Ca2+ fluorescence, icilin activation, HEK293 cells); type: cell-based; conditions: for IC50: HEK293 cells expressing canine TRPM8, icilin activation, individually measured values (batches/salt forms), read-out: IC50 (nM), in vitro TRP M8 Activity
T1 construct: expressed in transfected cells
In short: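 HEK293 cells expressing canine TRPM8 loaded with Calcium 3 dye, then stimulated with icilin; intracellular Ca2+ rise read on FLIPR or FDSS. Peak fluorescence minus basal normalized to percent maximal response; IC50 from sigmoidal nonlinear regression of quadruplicate wells.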

[1] = system: icilin-induced “wet-dog” shakes (WDS); assay: Inhibition of Icilin-Induced “Wet-Dog” Shakes in Rats; type: in vivo, Sprague Dawley rats; conditions: po, rat, 1.5 hrs
Description: The test compound was administered in 10% hydroxypropyl-β-cyclodextrin (HP-13-CD), p.o., 60 min before icilin.
% Inhibition=[1−(test compound WDS count/vehicle WDS count)]×100.

[2] = system: CCI-induced cold hypersensitivity; assay: Chronic Constriction Injury (CCI)-Induced Model of Neuropathic Pain, Acetone-Induced Hypersensitivity; type: in vivo, Sprague-Dawley rats; conditions: rat, p.o., acetone-induced withdrawals, 2 h after administration
Excerpt: Male Sprague-Dawley rats (225-450 g; n=5-8/treatment) were used to evaluate the ability of test compounds to reverse CCl-induced cold hypersensitivity. Four loose ligatures of 4-0 chromic gut were surgically placed around the left sciatic nerve under inhalation anesthesia as described by Bennett et al. (BENNETT, G. J., et al., “A peripheral mononeuropathy in rat that produces disorder of pain sensation like those seen in man”, Pain, 1988, pp 87-107, Vol. 33(1)). Fourteen to 35 days following CCl surgery, subjects were placed in elevated observation chambers containing wire mesh floors, and five applications of acetone (0.05 mL/application separated by approximately 5 min) were spritzed onto the plantar surface of the paw using a multidose syringe. An abrupt withdrawal or lifting of the paw was considered a positive response. The number of positive responses was recorded for each rat over the five trials. […] The number of withdrawals was re-determined at 2 hr after compound administration. […] Results are presented below as a percent inhibition of […], which was calculated for each subject and then averaged by treatment as follows: […]

rats = conditions: cited from earlier work
humans = conditions: 5-10 mg ingested orally; cited from earlier work

T1 sequence (Q1A7N1 1-1104): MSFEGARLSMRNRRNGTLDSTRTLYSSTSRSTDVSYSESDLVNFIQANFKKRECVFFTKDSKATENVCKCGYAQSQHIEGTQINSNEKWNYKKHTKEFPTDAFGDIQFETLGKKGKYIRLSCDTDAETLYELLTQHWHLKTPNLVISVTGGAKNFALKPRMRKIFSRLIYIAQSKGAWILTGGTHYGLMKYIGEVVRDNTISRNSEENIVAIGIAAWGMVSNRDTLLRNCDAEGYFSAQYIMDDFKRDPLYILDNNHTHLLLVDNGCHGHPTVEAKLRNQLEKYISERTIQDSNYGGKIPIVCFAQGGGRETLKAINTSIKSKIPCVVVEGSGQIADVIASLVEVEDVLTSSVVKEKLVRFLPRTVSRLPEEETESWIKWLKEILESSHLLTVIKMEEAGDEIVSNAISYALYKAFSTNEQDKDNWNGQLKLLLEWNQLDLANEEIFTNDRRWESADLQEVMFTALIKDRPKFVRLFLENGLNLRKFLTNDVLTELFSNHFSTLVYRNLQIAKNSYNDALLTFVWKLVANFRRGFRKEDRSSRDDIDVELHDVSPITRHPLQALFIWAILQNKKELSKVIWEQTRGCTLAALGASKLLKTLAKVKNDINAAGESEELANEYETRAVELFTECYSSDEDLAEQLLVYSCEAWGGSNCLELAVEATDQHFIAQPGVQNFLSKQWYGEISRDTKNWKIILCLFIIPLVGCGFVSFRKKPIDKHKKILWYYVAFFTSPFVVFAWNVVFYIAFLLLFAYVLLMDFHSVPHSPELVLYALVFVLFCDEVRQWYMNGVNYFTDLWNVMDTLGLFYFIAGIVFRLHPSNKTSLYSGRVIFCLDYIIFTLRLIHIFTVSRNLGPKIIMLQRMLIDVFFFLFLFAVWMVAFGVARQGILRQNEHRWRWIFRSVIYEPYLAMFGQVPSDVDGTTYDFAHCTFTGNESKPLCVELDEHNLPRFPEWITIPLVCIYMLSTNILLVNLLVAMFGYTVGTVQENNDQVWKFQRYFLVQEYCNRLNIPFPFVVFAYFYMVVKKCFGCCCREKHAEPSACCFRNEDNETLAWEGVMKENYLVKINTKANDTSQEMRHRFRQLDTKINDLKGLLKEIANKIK

Row | IC50 (canine TRPM8) | Compound | CCI % Inhibition @ 2 h [2] | further results
1 | 12 nM and 15 nM and 10 nM | CC(C)(C)c1cc(-c2nc3cc(-c4ccccc4OC(F)(F)F)ccc3[nH]2)on1.[Na] [Compound 10, 2-(3-tert-Butylisoxazol-5-yl)-5-(2-trifluoromethoxyphenyl)-1H-benzimidazole sodium salt] | 57.1% | inhibition in vivo at 30 mg/kg ([1]; dose 30 mg/kg): 97.3%
2 | 3.7 nM and 4.6 nM and 3.8 nM | Cl.Cn1nc(C(C)(C)C)c(Cl)c1-c1nc2cc(-c3c(F)cccc3F)ccc2[nH]1 [Compound 85, 2-(5-tert-Butyl-4-chloro-2-methyl-2H-pyrazol-3-yl)-5-(2,6-difluoro-phenyl)-1H-benzimidazole hydrochloride] | 34.3% | inhibition in vivo at 10 mg/kg ([1]; p.o., dose 10 mg/kg, read-out: Icilin % Inhibition @1.5 hrs): 96.4%
3 | 7.4 nM and 5 nM and 9.3 nM | Cl.Cn1nc(C(C)(C)C)c(Cl)c1-c1nc2cc(-c3ccccc3F)ccc2[nH]1 [Compound 90, 2-(5-tert-Butyl-4-chloro-2-methyl-2H-pyrazol-3-yl)-5-(2-fluoro-phenyl)-1H-benzimidazole hydrochloride] | 22.5% | inhibition in vivo at 5.6 mg/kg ([1]; dose 5.6 mg/kg): 52.7%
4 | 2.3 nM and 7 nM and 4.3 nM and 4.7 nM and 3.2 nM | Cn1nc(C(C)(C)C)c(C#N)c1-c1nc2cc(-c3ccccc3Cl)cc(Cl)c2[nH]1.[Na] [Compound 168, 3-tert-Butyl-5-[7-chloro-5-(2-chloro-phenyl)-1H-benzimidazol-2-yl]-1-methyl-1H-pyrazole-4-carbonitrile sodium salt] | 74.3% | % Inh (%) @0.2 μM, in vitro TRP M8 Activity (canine TRPM8; 0.2 μM test compound, individually measured values, sodium salt, 0.2 µM): 101% and 100% (2×); inhibition at 0.2 µM (canine TRPM8; HEK293, 0.2 μM test compound, individually measured values, read-out: % Inh (%) @0.2 μM, in vitro TRP M8 Activity): 99%; inhibition in vivo at 3 mg/kg ([1]; p.o., dose 3 mg/kg, read-out: Icilin % Inhibition @1.5 hrs): 86%
5 | – | O=C1NC(c2cccc([N+](=O)[O-])c2)=CCN1c1ccccc1O [Icilin] | – | behaviour caused in initial in vivo testing (rats): “wet-dog” shakes; coldness in the mouth, pharynx and chest lasting (humans): 30 to 60 min
